From PubChem BioAssay (NCI)
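In this assay, cells in 96-well plates receive the compound at five concentrations for 48 hours. Endpoints are linearly interpolated between the surrounding concentrations. At the GI50, growth is halved. Definition used: TGI = concentration required for complete inhibition of growth.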

What was measured:
Assay in all cases: growth of human tumour cells (NCI), 48 h
NCI-H522 lung = test system: NCI-H522 lung
MOLT-4 leukemia = test system: MOLT-4 leukemia
UO-31 renal = test system: UO-31 renal
IGROV1 ovarian = test system: IGROV1 ovarian
A549 NSCLC = test system: A549 NSCLC
U251 CNS = test system: U251 CNS
NCI-H23 lung = test system: NCI-H23 lung
SK-OV-3 ovarian = test system: SK-OV-3 ovarian
SK-MEL-2 melanoma = test system: SK-MEL-2 melanoma
LOX IMVI melanoma = test system: LOX IMVI melanoma

SMILES | GI50 (NCI-H522 lung) [µM] | TGI (NCI-H522 lung) [µM] | GI50 (MOLT-4 leukemia) [µM] | TGI (MOLT-4 leukemia) [µM] | GI50 (UO-31 renal) [µM] | TGI (UO-31 renal) [µM] | GI50 (IGROV1 ovarian) [µM] | TGI (IGROV1 ovarian) [µM] | GI50 (A549 NSCLC) [µM] | TGI (A549 NSCLC) [µM] | GI50 (U251 CNS) [µM] | TGI (U251 CNS) [µM] | GI50 (NCI-H23 lung) [µM] | TGI (NCI-H23 lung) [µM] | GI50 (SK-OV-3 ovarian) [µM] | TGI (SK-OV-3 ovarian) [µM] | GI50 (SK-MEL-2 melanoma) [µM] | TGI (SK-MEL-2 melanoma) [µM] | GI50 (LOX IMVI melanoma) [µM] | TGI (LOX IMVI melanoma) [µM]
N#Cc1cnc2cc(OC[C@H](O)CO)c(NC(=O)CC3CSSC3)cc2c1Nc1ccc(OCc2cccc(F)c2)c(Cl)c1 | 0.729 | 1.59 | 0.0931 | 0.209 | 2.11 | 7.75 | 0.446 | 1.39 | 0.924 | 1.98 | 0.465 | 1.33 | 0.772 | 1.7 | 0.748 | 1.48 | 0.638 | 1.4 | 2.26 | 3.41
CC1CCCCc2nc3c(c(=O)n21)CCCC3 (configuration not stated) | – | > 100 | – | > 100 | – | > 100 | – | > 100 | – | > 100 | – | > 100 | – | > 100 | – | > 100 | – | > 100 | – | > 100
CC(C)(C)OC(=O)C#CC[C@H]1CCCC1/C=C/C(O)=C1/C(=O)NC(CCCNC(=O)OC(C)(C)C)C1=O (some centres not stated) | – | 40.7 | – | 75.9 | – | > 100 | – | > 100 | – | > 100 | – | 74.8 | – | 78.3 | – | > 100 | – | 34.4 | – | 40.2
CCN(CC)S(=O)(=O)c1ccc(OC)c(Nc2ncc(-c3ccccc3)o2)c1 | > 16.9 | > 25 | > 18.3 | > 25 | > 12.9 | > 25 | > 25 | > 25 | 24.9 | > 25 | > 18.7 | > 25 | > 22.7 | > 25 | 20.9 | > 25 | > 22.7 | > 25 | > 22.6 | > 25
CC(C)(C)C[C@H]1NC(C(=O)NCC[C@H](O)CO)[C@H](c2cccc(Cl)c2)[C@@]12C(=O)Nc1cc(Cl)c(F)cc12 (some centres not stated) | 14.3 | 30 | 2.19 | 8.22 | 5.13 | 19.2 | 4.08 | 21.1 | 3.13 | 17.4 | 15 | 30.5 | 18.7 | 41.6 | 16.3 | 34.9 | 14.4 | 28.6 | 3.12 | 19.1
C=CCc1c2c(c(OC)c3ccoc13)C(=O)/C(=C/c1ccccc1OC)O2 | 3.16 | 31.7 | 3.52 | > 100 | 4.98 | > 100 | 5.27 | > 100 | 4.12 | > 100 | 3.53 | > 100 | 2.88 | 14.7 | 5.45 | 35.1 | 6.06 | > 100 | 3.13 | 27.1
CCOC(=O)C1=C(C)N(Cc2ccccc2)C(C)=C(C(=O)OCC)C1c1ccccc1O | – | 74.5 | – | 32.3 | – | > 100 | – | > 100 | – | > 100 | – | > 100 | – | 57.7 | – | > 100 | – | 52.7 | – | 39.7
Cc1ccc(/C=C2\CN(C(=O)OC(C)(C)C)C/C(=C\c3ccc(C)cc3)C2=O)cc1 | 0.159 | > 100 | 0.805 | > 41.9 | 1.16 | > 100 | 0.367 | > 100 | – | > 100 | 0.489 | > 100 | 0.516 | > 100 | – | 97.5 | – | > 100 | 0.0743 | > 100
COc1cccc(/C=C/C(=O)c2cccc(Nc3nc(Nc4ccccc4)nc(Nc4ccccc4)n3)c2)c1 | 15.1 | > 100 | 3.86 | 26.3 | 7.36 | 57.5 | 5.47 | 33.2 | 30.9 | > 100 | 9.5 | > 73.8 | 21.3 | > 100 | > 78.5 | > 100 | > 33.4 | > 100 | 7.04 | 21.3
CC(=O)NC(CCCNCc1ccccc1)C(=O)NCc1ccccc1 (configuration not stated) | – | > 100 | – | > 100 | – | > 100 | – | > 100 | – | > 100 | – | > 100 | – | > 100 | – | > 100 | – | > 100 | – | > 100
Cc1cc(N(CCC#N)S(=O)(=O)c2ccccc2)ccc1/C=C1N=C(/C=C/c2ccccc2)OC\1=O | – | > 100 | – | > 100 | – | > 100 | – | > 100 | – | > 100 | – | > 100 | – | > 100 | – | > 100 | – | > 100 | – | > 100
COc1ccc2nc3cc([N+](=O)[O-])ccc3c(NCCCCCN(C)C)c2c1 | 0.03 | 0.0907 | 0.105 | 1.04 | 0.819 | 3.63 | 0.37 | 2.53 | 0.25 | 1.15 | 0.218 | 2.64 | 0.25 | 1.54 | 0.351 | 2.36 | 0.0208 | 0.214 | 0.279 | 1.1
COC(=O)[C@H](Cc1cn(C)cn1)NC(=O)[C@H](Cc1c[nH]c2ccccc12)NC(=O)Nc1cc(C(F)(F)F)cc(C(F)(F)F)c1 | > 10 | > 10 | > 10 | > 10 | > 10 | > 10 | > 10 | > 10 | > 10 | > 10 | > 10 | > 10 | > 10 | > 10 | > 10 | > 10 | > 10 | > 10 | > 10 | > 10
COc1cccc(NC(=O)CC(=O)N2N=C(N(CCC#N)c3ccc(Cl)cc3)CC2c2ccccc2)c1 (configuration not stated) | – | > 100 | – | > 100 | – | > 100 | – | > 100 | – | > 100 | – | > 100 | – | > 100 | – | > 100 | – | > 100 | – | > 100
